Results taken from patent publication US20220251163A1 (Sinopep-Allsino Biopharmaceutical Co., Ltd., priority 2019, published 2022).
Where two headings read alike, the source gives them in different places. Where a SMILES comes first, the peptide text is derived from it.

Columns and labels:
mGLP-1R = target: T1, mGLP-1R (Mus musculus, UniProt O35659); assay: GLP-1R agonist activity, cAMP in transfected HEK293 cells; format: cell-based
T1 construct: expressed in transfected cells; host or cells: HEK293
T1 sequence (O35659 22-463): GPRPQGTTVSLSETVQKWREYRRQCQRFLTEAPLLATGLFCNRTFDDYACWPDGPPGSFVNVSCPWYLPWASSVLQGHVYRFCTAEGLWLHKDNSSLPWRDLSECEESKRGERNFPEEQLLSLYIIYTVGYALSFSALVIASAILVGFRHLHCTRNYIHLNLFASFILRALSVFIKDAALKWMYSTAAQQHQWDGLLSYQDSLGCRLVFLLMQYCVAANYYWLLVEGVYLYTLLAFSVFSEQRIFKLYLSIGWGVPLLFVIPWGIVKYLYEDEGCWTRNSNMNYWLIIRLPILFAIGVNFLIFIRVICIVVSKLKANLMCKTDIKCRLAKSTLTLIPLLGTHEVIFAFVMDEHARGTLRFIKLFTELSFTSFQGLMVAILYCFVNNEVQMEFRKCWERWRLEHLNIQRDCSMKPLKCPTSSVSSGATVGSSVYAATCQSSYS

mGIPR = target: T2, mGIPR (Mus musculus, UniProt Q0P543); assay: GIPR agonist activity, cAMP in transfected HEK293 cells; format: cell-based
T2 construct: expressed in transfected cells; host or cells: HEK293
T2 sequence (Q0P543 19-460): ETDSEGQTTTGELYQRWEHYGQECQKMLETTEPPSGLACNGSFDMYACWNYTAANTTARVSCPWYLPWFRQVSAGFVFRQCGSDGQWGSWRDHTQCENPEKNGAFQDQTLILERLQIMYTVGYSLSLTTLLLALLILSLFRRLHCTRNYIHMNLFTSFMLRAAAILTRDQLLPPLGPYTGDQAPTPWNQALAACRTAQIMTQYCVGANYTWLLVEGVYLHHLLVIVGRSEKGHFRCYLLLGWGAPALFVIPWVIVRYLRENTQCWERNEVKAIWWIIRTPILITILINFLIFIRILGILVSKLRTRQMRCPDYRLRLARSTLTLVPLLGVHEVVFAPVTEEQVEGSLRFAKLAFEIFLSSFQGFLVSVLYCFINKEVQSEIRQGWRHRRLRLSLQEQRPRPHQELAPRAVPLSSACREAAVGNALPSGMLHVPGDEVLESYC

[1] = HEK293 cells transfected with GLP-1R, cAMP, 20 min incubation, read-out: mGLP-1R EC50
[2] = HEK293 cells transfected with GIPR, cAMP, 20 min incubation, read-out: mGIPR EC50

SMILES	EC50 (mGLP-1R; [1]) [pM]	EC50 (mGIPR; [2]) [pM]	EC50 (mGLP-1R) [pM]	EC50 (mGIPR) [pM]
CCCCCCCCCCCCCCCC(=O)N[C@@H](CCC(=O)NCCCC[C@H](NC(=O)[C@H](CCC(N)=O)NC(=O)[C@H](C)NC(=O)[C@@H](NC(=O)[C@H](CCCCN)NC(=O)[C@H](CC(=O)O)NC(=O)[C@H](CC(C)C)NC(=O)C(C)(C)NC(=O)[C@@H](NC(=O)[C@H](CO)NC(=O)[C@H](Cc1ccc(O)cc1)NC(=O)[C@H](CC(=O)O)NC(=O)[C@H](CO)NC(=O)[C@@H](NC(=O)[C@H](Cc1ccccc1)NC(=O)[C@@H](NC(=O)CNC(=O)[C@H](CCC(=O)O)NC(=O)C1(NC(=O)[C@@H](N)Cc2ccc(O)cc2)CCCC1)[C@@H](C)O)[C@@H](C)O)[C@@H](C)CC)[C@@H](C)CC)C(=O)N[C@@H](C)C(=O)N[C@@H](Cc1ccccc1)C(=O)N[C@H](C(=O)N[C@@H](CCC(N)=O)C(=O)N[C@@H](Cc1c[nH]c2ccccc12)C(=O)N[C@@H](CC(C)C)C(=O)N[C@H](C(=O)N[C@@H](C)C(=O)NCC(=O)NCC(=O)N1CCC[C@H]1C(=O)N[C@@H](CO)C(=O)N[C@@H](CO)C(=O)NCC(=O)N[C@@H](C)C(=O)N1CCC[C@H]1C(=O)N1CCC[C@H]1C(=O)N1CCC[C@H]1C(=O)N[C@@H](CO)C(N)=O)[C@@H](C)CC)C(C)C)C(=O)O [ID NO: 20]	15.9	5.91	–	–
CC[C@H](C)[C@H](NC(=O)[C@H](CC(C)C)NC(=O)[C@H](Cc1c[nH]c2ccccc12)NC(=O)[C@H](CCC(N)=O)NC(=O)[C@@H](NC(=O)[C@H](Cc1ccccc1)NC(=O)[C@H](C)NC(=O)[C@H](CCCCNC(=O)COCCOCCNC(=O)COCCOCCNC(=O)CC[C@H](NC(=O)CCCCCCCCCCCCCCCCC(=O)O)C(=O)O)NC(=O)[C@H](CCC(N)=O)NC(=O)[C@H](C)NC(=O)[C@@H](NC(=O)[C@H](CCCCN)NC(=O)[C@H](CC(=O)O)NC(=O)[C@H](CC(C)C)NC(=O)C1(NC(=O)[C@@H](NC(=O)[C@H](CO)NC(=O)[C@H](Cc2ccc(O)cc2)NC(=O)[C@H](CC(=O)O)NC(=O)[C@H](CO)NC(=O)[C@@H](NC(=O)[C@H](Cc2ccccc2)NC(=O)[C@@H](NC(=O)CNC(=O)[C@H](CCC(=O)O)NC(=O)C2(NC(=O)[C@@H](N)Cc3ccc(O)cc3)CCCC2)[C@@H](C)O)[C@@H](C)O)[C@@H](C)CC)CCCC1)[C@@H](C)CC)C(C)C)C(=O)N[C@@H](C)C(=O)NCC(=O)NCC(=O)N1CCC[C@H]1C(=O)N[C@@H](CO)C(=O)N[C@@H](CO)C(=O)NCC(=O)N[C@@H](C)C(=O)N1CCC[C@H]1C(=O)N1CCC[C@H]1C(=O)N1CCC[C@H]1C(=O)N[C@@H](CO)C(N)=O [ID NO: 3]	–	–	3.96	1.49
CC[C@H](C)[C@H](NC(=O)[C@H](CC(C)C)NC(=O)[C@H](Cc1c[nH]c2ccccc12)NC(=O)[C@H](CCC(N)=O)NC(=O)[C@@H](NC(=O)[C@H](Cc1ccccc1)NC(=O)[C@H](C)NC(=O)[C@H](CCCCNC(=O)COCCOCCNC(=O)COCCOCCNC(=O)CC[C@H](NC(=O)CCCCCCCCCCCCCCCCC(=O)O)C(=O)O)NC(=O)[C@H](CCC(N)=O)NC(=O)[C@H](C)NC(=O)[C@@H](NC(=O)[C@H](CCCCN)NC(=O)[C@H](CC(=O)O)NC(=O)[C@H](CC(C)C)NC(=O)C(C)(C)NC(=O)[C@@H](NC(=O)[C@H](CO)NC(=O)[C@H](Cc1ccc(O)cc1)NC(=O)[C@H](CC(=O)O)NC(=O)[C@H](CO)NC(=O)[C@@H](NC(=O)[C@H](Cc1ccccc1)NC(=O)[C@@H](NC(=O)CNC(=O)[C@H](CCC(=O)O)NC(=O)C1(NC(=O)[C@@H](N)Cc2ccc(O)cc2)CCCC1)[C@@H](C)O)[C@@H](C)O)[C@@H](C)CC)[C@@H](C)CC)C(C)C)C(=O)N[C@@H](C)C(=O)NCC(=O)NCC(=O)N1CCC[C@H]1C(=O)N[C@@H](CO)C(=O)N[C@@H](CO)C(=O)NCC(=O)N[C@@H](C)C(=O)N1CCC[C@H]1C(=O)N1CCC[C@H]1C(=O)N1CCC[C@H]1C(=O)N[C@@H](CO)C(N)=O [ID NO: 9]	–	–	9.41	6.98
CCCCCCCCCCCCCCCC(=O)N[C@@H](CCC(=O)NCCCC[C@H](NC(=O)[C@H](CCC(N)=O)NC(=O)[C@H](C)NC(=O)[C@@H](NC(=O)[C@H](CCCCN)NC(=O)[C@H](CC(=O)O)NC(=O)[C@H](CC(C)C)NC(=O)[C@@H](NC(=O)[C@@H](NC(=O)[C@H](CO)NC(=O)[C@H](Cc1ccc(O)cc1)NC(=O)[C@H](CC(=O)O)NC(=O)[C@H](CO)NC(=O)[C@@H](NC(=O)[C@H](Cc1ccccc1)NC(=O)[C@@H](NC(=O)CNC(=O)[C@H](CCC(=O)O)NC(=O)[C@@H](NC(=O)[C@@H](N)Cc1ccc(O)cc1)C(C)C)[C@@H](C)O)[C@@H](C)O)[C@@H](C)CC)C(C)C)[C@@H](C)CC)C(=O)N[C@@H](C)C(=O)N[C@@H](Cc1ccccc1)C(=O)N[C@H](C(=O)N[C@@H](CCC(N)=O)C(=O)N[C@@H](Cc1c[nH]c2ccccc12)C(=O)N[C@@H](CC(C)C)C(=O)N[C@H](C(=O)N[C@@H](C)C(=O)NCC(=O)NCC(=O)N1CCC[C@H]1C(=O)N[C@@H](CO)C(=O)N[C@@H](CO)C(=O)NCC(=O)N[C@@H](C)C(=O)N1CCC[C@H]1C(=O)N1CCC[C@H]1C(=O)N1CCC[C@H]1C(=O)N[C@@H](CO)C(N)=O)[C@@H](C)CC)C(C)C)C(=O)O [ID NO: 12] (HELM PEPTIDE1{Y.V.E.G.T.F.T.S.D.Y.S.I.V.L.D.K.I.A.Q.K.A.F.V.Q.W.L.I.A.G.G.P.S.S.G.A.P.P.P.S.[am]}|PEPTIDE2{[CCCCCCCCCCCCCCCC(=O)[*:2]].[gGlu]}$PEPTIDE1,PEPTIDE2,20:R3-2:R2$$$V2.0)	56.1	8.79	–	–
CCCCCCCCCCCCCCCC(=O)N[C@@H](CCC(=O)NCCCC[C@H](NC(=O)[C@H](CCC(N)=O)NC(=O)[C@H](C)NC(=O)[C@@H](NC(=O)[C@H](CCCCN)NC(=O)[C@H](CC(=O)O)NC(=O)[C@H](CC(C)C)NC(=O)C(C)(C)NC(=O)[C@@H](NC(=O)[C@H](CO)NC(=O)[C@H](Cc1ccc(O)cc1)NC(=O)[C@H](CC(=O)O)NC(=O)[C@H](CO)NC(=O)[C@@H](NC(=O)[C@H](Cc1ccccc1)NC(=O)[C@@H](NC(=O)CNC(=O)[C@H](CCC(=O)O)NC(=O)[C@H](C)NC(=O)[C@@H](N)Cc1ccc(O)cc1)[C@@H](C)O)[C@@H](C)O)[C@@H](C)CC)[C@@H](C)CC)C(=O)N[C@@H](C)C(=O)N[C@@H](Cc1ccccc1)C(=O)N[C@H](C(=O)N[C@@H](CCC(N)=O)C(=O)N[C@@H](Cc1c[nH]c2ccccc12)C(=O)N[C@@H](CC(C)C)C(=O)N[C@H](C(=O)N[C@@H](C)C(=O)NCC(=O)NCC(=O)N1CCC[C@H]1C(=O)N[C@@H](CO)C(=O)N[C@@H](CO)C(=O)NCC(=O)N[C@@H](C)C(=O)N1CCC[C@H]1C(=O)N1CCC[C@H]1C(=O)N1CCC[C@H]1C(=O)N[C@@H](CO)C(N)=O)[C@@H](C)CC)C(C)C)C(=O)O [ID NO: 16] (HELM PEPTIDE1{Y.A.E.G.T.F.T.S.D.Y.S.I.[Aib].L.D.K.I.A.Q.K.A.F.V.Q.W.L.I.A.G.G.P.S.S.G.A.P.P.P.S.[am]}|PEPTIDE2{[CCCCCCCCCCCCCCCC(=O)[*:2]].[gGlu]}$PEPTIDE1,PEPTIDE2,20:R3-2:R2$$$V2.0)	42.5	9.65	–	–
